The assay concerns the target Plasma kallikrein (Homo sapiens, UniProt P03952). Nature of the assay: Subsequently, PPACK II (Calbiochem) was added as a stop solution to achieve a final concentration of 1 μM and fluorescence was measured using an Envision Reader (PerkinElmer) with the wavelength excitation setting of 355 nm and the wavelength emission setting of 460 nm.Evaluation of the Inhibition of Human KLKB1 in Dextransulfat Activated Human PPP.Platelet poor plasma (PPP) obtained from human wholeblood, anticoagulated with EDTA, was activated with 12.5 μg/mL dextransulfate for 7 min on ice. The activated PPP was incubated with various concentrations of the test compound in assay buffer. […] Measurements were performed in a kinetic interval every 2nd minute for 16 min using a Spectramax M5 (Molecular Devices) with the following settings of the wavelength excitation of 350 nm and wavelength emission of 450 nm.

Sequence of Plasma kallikrein (P03952 20-390 limits assumed): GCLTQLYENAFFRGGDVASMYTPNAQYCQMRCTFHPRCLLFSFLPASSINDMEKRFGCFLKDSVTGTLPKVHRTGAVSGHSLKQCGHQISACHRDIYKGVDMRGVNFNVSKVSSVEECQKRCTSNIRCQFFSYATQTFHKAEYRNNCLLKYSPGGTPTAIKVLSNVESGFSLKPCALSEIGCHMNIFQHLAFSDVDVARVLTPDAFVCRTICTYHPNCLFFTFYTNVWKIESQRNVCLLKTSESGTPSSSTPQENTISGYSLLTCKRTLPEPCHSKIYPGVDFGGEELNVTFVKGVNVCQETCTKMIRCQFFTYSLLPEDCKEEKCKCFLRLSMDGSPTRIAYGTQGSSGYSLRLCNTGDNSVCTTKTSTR
Sequence of Plasma kallikrein (P03952 391-638 limits assumed): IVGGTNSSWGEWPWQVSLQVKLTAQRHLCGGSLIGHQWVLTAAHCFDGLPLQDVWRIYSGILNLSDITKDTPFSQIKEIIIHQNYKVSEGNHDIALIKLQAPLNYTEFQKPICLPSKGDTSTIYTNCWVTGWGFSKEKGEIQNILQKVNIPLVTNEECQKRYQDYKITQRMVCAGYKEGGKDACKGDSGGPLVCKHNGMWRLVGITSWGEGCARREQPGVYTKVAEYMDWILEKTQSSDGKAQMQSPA

The molecule `Cc1ccc2cc(Cn3cc(C(=O)N[C@@H]4CCc5c4ccnc5N)nn3)ccc2n1` yielded an IC50 of 36 nM.
Molecule `Cc1ccc2cc(Cn3cc(C(=O)N[C@H]4CCc5c4ccnc5N)nn3)ccc2n1` had an IC50 of 1900 nM.

The IC50 is the concentration that gives 50% inhibition.

The values are drawn from ChEMBL document CHEMBL5727277, “Heteroarylcarboxamide derivatives as plasma kallikrein inhibitors” (2019).
